According to patent publication US9777008B2, “PRMT5 inhibitors and uses thereof” (Epizyme, Inc., priority 2012, dated 2017):

Test system: symmetric di-methyl arginine in Z-138 cells
Test: Z-138 Methylation Assay (In Cell Western for symmetric di-methyl arginine and DNA content)
Assay type: cell-based
Details: read-out: ICW EC50
Excerpt: [formula] [formula] Where top and bottom are the normally allowed to float, but may be fixed at 100 or 0 respectively in a 3-parameter fit. The Hill Coefficient normally allowed to float but may also be fixed at 1 in a 3-parameter fit. Y is the % inhibition and X is the compound concentration. Z-138 Methylation Assay
Z-138 suspension cells were purchased from ATCC (American Type Culture Collection, Manassas, Va.). RPMI/Glutamax medium, penicillin-streptomycin, heat inactivated fetal bovine serum, and D-PBS were purchased from Life Technologies, Grand Island, N.Y., USA. Odyssey blocking buffer, 800CW goat anti-rabbit IgG (H+L) antibody, and Licor Odyssey infrared scanner were purchased from Licor Biosciences, Lincoln, Nebr., USA. Symmetric di-methyl arginine antibody was purchased from EMD Millipore, Billerica, Mass., USA. 16% Paraformaldehyde was purchased from Electron Microscopy Sciences, Hatfield, Pa., USA. Z-138 suspension cells were maintained in growth medium (RPMI 1640 supplemented with 10% v/v heat inactivated fetal bovine serum and 100 units/mL penicillin-streptomycin) and cultured at 37° C. under 5% CO2.
Cell Treatment, in Cell Western (ICW) for Detection of Symmetric Di-Methyl Arginine and DNA Content.
Z-138 cells were seeded in assay medium at a concentration of 50,000 cells per mL to a 384-well cell culture plate with 50 μL per well. Compound (100 nL) from 384 well source plates was added directly to 384 well cell plate. Plates were incubated at 37° C., 5% CO2 for 96 hours. […]
First, the ratio for each well was determined by:
Each plate included fourteen control wells of DMSO only treatment (minimum inhibition) as well as fourteen control wells for maximum inhibition treated with 3 μM of a reference compound (Background wells). The average of the ratio values for each control type was calculated and used to determine the percent inhibition for each test well in the plate. […] Percent inhibition was determined and IC50 curves were generated using triplicate wells per concentration of compound. […]

Compound	EC50 [µM]
OC(COc1cccc(-c2ccc3cn[nH]c3c2)c1)CN1CCc2ccccc2C1 (centres unmarked) [Compound 58, 1-(3-(1H-indazol-6-yl)phenoxy)-3-(3,4-dihydroisoquinolin-2(1H)-yl)propan-2-ol]	1 to 10
N-(3-(3-(3,4-dihydroisoquinolin-2(1H)-yl)-2-hydroxypropoxy)phenyl)pyrimidine-5-carboxamide [Compound 145]	1 to 10
